“And” between values parts separate entries of the source, which are not always exact repeats. Equal entries are not always repeated.
Test system: Hs578T complex spheroid growth, percent test/control
Assay: Anticancer human tumor Hs578T cell line growth inhibition [AhR];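 note: luminescent viability signal as a proxy for spheroid growth; spheroids exposed to agents for one week after three days of growth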
Settings: for viability, T/C: stronger effect = lower value
How it was run: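 Agents were dosed in half-log steps down from roughly clinical Cmax, or from 10 microM where Cmax was unknown, alone and with AhR antagonists. Read-out: percent test/control growth of tumor spheroids containing HUVEC and MSC stromal cells.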

[1] = curve of first compound, second compound 0.1 µM
[2] = curve of first compound, second compound 0.316 µM
[3] = curve of first compound, second compound 1 µM
[4] = curve of first compound, second compound 3.16 µM
[5] = curve of first compound, second compound 10 µM
[6] = second compound 0.1 µM, first compound 0.0316 µM
[7] = second compound 0.1 µM, first compound 0.1 µM
[8] = second compound 0.1 µM, first compound 0.316 µM
[9] = second compound 0.1 µM, first compound 1 µM
[10] = second compound 0.1 µM, first compound 3.16 µM
[11] = second compound 0.1 µM, first compound 10 µM
[12] = second compound 0.316 µM, first compound 0.0316 µM
[13] = second compound 0.316 µM, first compound 0.1 µM
[14] = second compound 0.316 µM, first compound 0.316 µM
[15] = second compound 0.316 µM, first compound 1 µM
[16] = second compound 0.316 µM, first compound 3.16 µM
[17] = second compound 0.316 µM, first compound 10 µM
[18] = second compound 1 µM, first compound 0.0316 µM
[19] = second compound 1 µM, first compound 0.1 µM
[20] = second compound 1 µM, first compound 0.316 µM
[21] = second compound 1 µM, first compound 1 µM
[22] = second compound 1 µM, first compound 3.16 µM
[23] = second compound 1 µM, first compound 10 µM
[24] = second compound 3.16 µM, first compound 0.0316 µM
[25] = second compound 3.16 µM, first compound 0.1 µM
[26] = second compound 3.16 µM, first compound 0.316 µM
[27] = second compound 3.16 µM, first compound 1 µM
[28] = second compound 3.16 µM, first compound 3.16 µM
[29] = second compound 3.16 µM, first compound 10 µM
[30] = second compound 10 µM, first compound 0.0316 µM
[31] = second compound 10 µM, first compound 0.1 µM
[32] = second compound 10 µM, first compound 0.316 µM
[33] = second compound 10 µM, first compound 1 µM
[34] = second compound 10 µM, first compound 3.16 µM
[35] = second compound 10 µM, first compound 10 µM

IC50 [1]	IC50 [2]	IC50 [3]	IC50 [4]	IC50 [5]	SMILES	viability, T/C [6]	viability, T/C [7]	viability, T/C [8]	viability, T/C [9]	viability, T/C [10]	viability, T/C [11]	viability, T/C [12]	viability, T/C [13]	viability, T/C [14]	viability, T/C [15]	viability, T/C [16]	viability, T/C [17]	viability, T/C [18]	viability, T/C [19]	viability, T/C [20]	also measured
> 10 µM	> 10 µM	> 10 µM	> 10 µM	> 10 µM	COc1cc(Nc2ncc3c(n2)-c2ccc(Cl)cc2C(c2c(F)cccc2OC)=NC3)ccc1C(=O)O + CC(CO)NC(=O)c1cc(-c2ccc(Cl)cc2)nn(-c2cnn(C)c2)c1=O	99.8%	92.3%	104%	99.1%	93.3%	59.6%	94.6%	96%	100%	93.4%	84.4%	51.8%	102%	102%	114%	viability, T/C [21]: 99%; viability, T/C [22]: 85.3%; viability, T/C [23]: 68.6%; viability, T/C [24]: 95.5%; viability, T/C [25]: 91.6%; viability, T/C [26]: 101%; viability, T/C [27]: 102%; viability, T/C [28]: 84.7%; viability, T/C [29]: 67.3%; viability, T/C [30]: 84.9%; viability, T/C [31]: 84%; viability, T/C [32]: 93.6%; viability, T/C [33]: 97.8%; viability, T/C [34]: 83.5%; viability, T/C [35]: 72.3%
> 10 µM	> 10 µM	> 10 µM	> 10 µM	> 10 µM	O=C(c1cc(Cc2n[nH]c(=O)c3ccccc23)ccc1F)N1CCN(C(=O)C2CC2)CC1 + Cc1ccccc1N=Nc1ccc(NC(=O)c2ccnn2C)c(C)c1	96.8%	104%	109%	101%	96.9%	80.9%	101%	107%	100%	101%	88.2%	72.1%	104%	109%	104%	viability, T/C [21]: 99.6%; viability, T/C [22]: 104%; viability, T/C [23]: 81.3%; viability, T/C [24]: 96.9%; viability, T/C [25]: 97.7%; viability, T/C [26]: 94.9%; viability, T/C [27]: 96.8%; viability, T/C [28]: 85.9%; viability, T/C [29]: 72.3%; viability, T/C [30]: 66.8%; viability, T/C [31]: 70.7%; viability, T/C [32]: 76.5%; viability, T/C [33]: 69.3%; viability, T/C [34]: 67.6%; viability, T/C [35]: 63.5%
–	–	–	–	–	Nc1ncn(C2CC(O)C(CO)O2)c(=O)n1 (centres undefined)	–	–	–	–	–	–	–	–	–	–	–	–	–	–	–	viability, T/C (compound 0.00316 µM): 107% and 102% and 97.1%; viability, T/C (compound 0.01 µM): 104% (2×) and 97.5%; viability, T/C (compound 0.0316 µM): 117% and 101% and 103%; viability, T/C (compound 0.1 µM): 102% and 105% and 98.2%; viability, T/C (compound 0.316 µM): 101% and 92.1% and 94.3%; viability, T/C (compound 1 µM): 89.7% and 90.5% and 96.5%; IC50 (curve of compound): > 1 µM
–	–	–	–	–	COc1ccc([C@@H](O)c2cc(-c3ncnc4cc(N5CCOCC5)ccc34)c(F)cc2Cl)nn1	–	–	–	–	–	–	–	–	–	–	–	–	–	–	–	viability, T/C (compound 0.0316 µM): 98.8% and 109% and 95.3%; viability, T/C (compound 0.1 µM): 106% and 104% and 89.5%; viability, T/C (compound 0.316 µM): 90.8% and 87.6% and 99.6%; viability, T/C (compound 1 µM): 90.1% and 71.2% and 78.9%; viability, T/C (compound 3.16 µM): 57.8% and 44.8% and 53.4%; viability, T/C (compound 10 µM): 35.3% and 31.1% and 33.9%; IC50 (curve of compound): 4.83 µM and 2.64 µM and 3.67 µM
> 10 µM	> 10 µM	> 10 µM	> 10 µM	< 0.0316 µM	CC1(C)CCC(CN2CCN(c3ccc(C(=O)NS(=O)(=O)c4ccc(NCC5CCOCC5)c([N+](=O)[O-])c4)c(Oc4cnc5[nH]ccc5c4)c3)CC2)=C(c2ccc(Cl)cc2)C1 + Cc1cncc(-c2nc(NCCc3c[nH]c4ccccc34)c3ncn(C(C)C)c3n2)c1	117%	118%	115%	94.8%	95.9%	82.6%	117%	118%	112%	109%	105%	97.4%	113%	111%	109%	viability, T/C [21]: 108%; viability, T/C [22]: 111%; viability, T/C [23]: 92.8%; viability, T/C [24]: 49.6%; viability, T/C [25]: 65.6%; viability, T/C [26]: 65.5%; viability, T/C [27]: 56.4%; viability, T/C [28]: 69.2%; viability, T/C [29]: 75.2%; viability, T/C [30]: 3.98%; viability, T/C [31]: 3.8%; viability, T/C [32]: 4.95%; viability, T/C [33]: 5.32%; viability, T/C [34]: 4.95%; viability, T/C [35]: 8.06%
> 10 µM	> 10 µM	> 10 µM	> 10 µM	> 10 µM	COc1cc(C2c3cc4c(cc3C(OC3OC5COC(C)OC5C(O)C3O)C3COC(=O)C23)OCO4)cc(OC)c1O (centres undefined) + CC(CO)NC(=O)c1cc(-c2ccc(Cl)cc2)nn(-c2cnn(C)c2)c1=O	103%	109%	87.9%	79.2%	81%	64.9%	111%	99.2%	105%	83.2%	73.8%	57.1%	108%	123%	88.7%	viability, T/C [21]: 80.1%; viability, T/C [22]: 89.1%; viability, T/C [23]: 60.5%; viability, T/C [24]: 116%; viability, T/C [25]: 102%; viability, T/C [26]: 99.9%; viability, T/C [27]: 86.2%; viability, T/C [28]: 79.2%; viability, T/C [29]: 60.7%; viability, T/C [30]: 83.7%; viability, T/C [31]: 88.3%; viability, T/C [32]: 89.1%; viability, T/C [33]: 76.6%; viability, T/C [34]: 83.4%; viability, T/C [35]: 58.9%
0.965 µM	1.47 µM	1.52 µM	0.862 µM	0.105 µM	NS(=O)(=O)OCC1CC(n2ccc3c(NC4CCc5ccccc54)ncnc32)CC1O (centres undefined) + Cc1ccccc1N=Nc1ccc(NC(=O)c2ccnn2C)c(C)c1	104%	82.5%	78.1%	45.4%	34.6%	30.2%	108%	78.2%	71.2%	59%	36.5%	33.7%	97.8%	74.8%	83.1%	viability, T/C [21]: 57.7%; viability, T/C [22]: 35.3%; viability, T/C [23]: 34.7%; viability, T/C [24]: 94.9%; viability, T/C [25]: 71%; viability, T/C [26]: 67.9%; viability, T/C [27]: 45.5%; viability, T/C [28]: 36.5%; viability, T/C [29]: 28%; viability, T/C [30]: 59.4%; viability, T/C [31]: 47.9%; viability, T/C [32]: 43.8%; viability, T/C [33]: 37.5%; viability, T/C [34]: 30.2%; viability, T/C [35]: 25.8%
> 10 µM	9.59 µM	> 10 µM	> 10 µM	0.77 µM	Nc1ccn(C2OC(CO)C(O)C2(F)F)c(=O)n1 (centres undefined) + CC(CO)NC(=O)c1cc(-c2ccc(Cl)cc2)nn(-c2cnn(C)c2)c1=O	54.6%	58.7%	62.1%	54%	51.9%	52.4%	60.3%	63.5%	52.5%	52.3%	57.3%	47.9%	61.1%	70.3%	55.3%	viability, T/C [21]: 50.5%; viability, T/C [22]: 57.9%; viability, T/C [23]: 50.4%; viability, T/C [24]: 59.4%; viability, T/C [25]: 61.8%; viability, T/C [26]: 59.5%; viability, T/C [27]: 54.5%; viability, T/C [28]: 53.6%; viability, T/C [29]: 58.5%; viability, T/C [30]: 55.1%; viability, T/C [31]: 60.6%; viability, T/C [32]: 47.7%; viability, T/C [33]: 44.6%; viability, T/C [34]: 51.5%; viability, T/C [35]: 49.1%

From PubChem BioAssay AID1919010 (Molecular Pharmacology Branch, DTP, NCI, 2023)
